Test results: patent publication US20210213104A1, “GLUCAGON AND GLP-1 CO-AGONISTS FOR THE TREATMENT OF CHRONIC KIDNEY DISEASE AND DIABETIC KIDNEY DISEASE IN TYPE 2 DIABETES” (MEDIMMUNE LIMITED, priority 2020, published 2021)

Tested on: subjects with T2DM and renal impairment
Test: Phase 2a: continuous glucose monitoring (CGM)
Assay type: in vivo, human
Conditions: ITT; for Average CGM Glucose Over 7-Day Periods, Difference in LS Mean Change (vs Placebo) / Average CGM Glucose Over 7-Day Periods, LS Mean Change / Percentage of time CGM Glucose in Clinically Significant Hypoglycemia (<54 mg/dL), Difference in LS Mean Change (vs Placebo) / Percentage of time CGM Glucose in Clinically Significant Hypoglycemia (<54 mg/dL), LS Mean Change / Percentage of time CGM Glucose in Hyperglycemia (>180 mg/dL), Difference in LS Mean Change (vs Placebo) / Percentage of time CGM Glucose in Hyperglycemia (>180 mg/dL), LS Mean Change / Percentage of time CGM Glucose in Hypoglycemia (<70 mg/dl), Difference in LS Mean Change (vs Placebo) / Percentage of time CGM Glucose in Hypoglycemia (<70 mg/dl), LS Mean Change / Average CGM Glucose Over 7-Day Periods, Change from Baseline to End of Dosing Period, Mean / Average CGM Glucose Over 7-Day Periods, Change from Baseline to End of Dosing Period, Median / Percentage of time CGM Glucose in Hyperglycemia (>180 mg/dL), Change from Baseline to End of Dosing Period, Mean / Percentage of time CGM Glucose in Hyperglycemia (>180 mg/dL), Change from Baseline to End of Dosing Period, Median: baseline Days −8 to −2; for Average CGM Glucose Over 7-Day Periods, Difference in LS Mean Change (vs Placebo) / Average CGM Glucose Over 7-Day Periods, LS Mean Change / Percentage of time CGM Glucose in Clinically Significant Hypoglycemia (<54 mg/dL), Difference in LS Mean Change (vs Placebo) / Percentage of time CGM Glucose in Clinically Significant Hypoglycemia (<54 mg/dL), LS Mean Change / Percentage of time CGM Glucose in Hyperglycemia (>180 mg/dL), Difference in LS Mean Change (vs Placebo) / Percentage of time CGM Glucose in Hyperglycemia (>180 mg/dL), LS Mean Change / Percentage of time CGM Glucose in Hypoglycemia (<70 mg/dl), Difference in LS Mean Change (vs Placebo) / Percentage of time CGM Glucose in Hypoglycemia (<70 mg/dl), LS Mean Change / Time in target range, LS Mean Change: ANCOVA; for Time in target range, LS Mean Change: 300 μg Dose (Days 26 to 32)
Protocol: Cotadutide was titrated from 50 μg up to 300 μg and administered once daily by subcutaneous (SC) injection over 32 days.
Cotadutide was administered at 50 μg once daily for 4 days, followed by 100 μg daily for 7 days, 200 μg daily for 7 days, and 300 μg daily for 14 days (n=20). Placebo was administered one daily for 32 days (n=20). Cotadutide and placebo were administered in the morning. Dosing commenced following predose baseline vital signs, blood tests (including HbA1c), an electrocardiogram (ECG), body weight measurement, and bioimpedance spectroscopy (BIS). Subjects then returned for daily dosing or remained overnight locally until Day 5, and thereafter, had visits at weekly intervals until a maintenance dose of 300 μg was established. Thus, Cotadutide or placebo was administered at the study site by study personal for the first four doses and on site on Days 5, 12, 19, and 32. At all other times, subjects preformed dosing at home.
A Freestyle Libre® Pro CGM device was used to measure interstitial glucose levels. […] Data generated by CGM was used at visits to adjust insulin doses and other treatments.
The CGM sensor, which is a small plastic circular device of 35 mm diameter and 5 mm depth, was applied to the back of the upper arm. Subjects wore the CGM sensor continuously up until the time of a sensor change, which was to occur within 14 days, and they were advised that they could bathe and shower, and swim in up to 3 m depth for up to 30 minutes while wearing the CGM sensor. When the CGM sensor was removed, a new CGM sensor could be reapplied, ideally close to the original site, but with the subject's site preference taken into account. CGM sensors were single-use only.
If a subject was unable to tolerate wearing the CGM sensor for the entire duration of the study, the sensor was removed; but the subject was to remain in the study with or without continued CGM and could instead be instructed to monitor capillary plasma glucose measurements four times per day (before meals and before bedtime) and record these levels in the diary provided.
Subjects underwent continuous glucose monitoring (CGM) starting from Day −14 to Day 40 (±5 days), with sensor changes within 14-day intervals. CGM readings were used to analyze change in average CGM glucose and glucose AUC7 d, coefficient of variation as a marker of glycemic variability, and time spent in target glucose range and hypoglycemia, to enable comparison across different dose levels.

CCCCCCCCCCCCCCCC(=O)N[C@@H](CCC(=O)NCCCC[C@H](NC(=O)[C@H](CC(=O)O)NC(=O)[C@H](CO)NC(=O)[C@@H](NC(=O)[C@H](Cc1ccccc1)NC(=O)[C@@H](NC(=O)CNC(=O)[C@H](CCC(N)=O)NC(=O)[C@H](CO)NC(=O)[C@@H](N)Cc1c[nH]cn1)[C@@H](C)O)[C@@H](C)O)C(=O)N[C@@H](CO)C(=O)N[C@@H](CCC(=O)O)C(=O)N[C@@H](Cc1ccc(O)cc1)C(=O)N[C@@H](CC(C)C)C(=O)N[C@@H](CC(=O)O)C(=O)N[C@@H](CO)C(=O)N[C@@H](CCC(=O)O)C(=O)N[C@@H](CCCNC(=N)N)C(=O)N[C@@H](C)C(=O)N[C@@H](CCCNC(=N)N)C(=O)N[C@@H](CC(=O)O)C(=O)N[C@@H](Cc1ccccc1)C(=O)N[C@H](C(=O)N[C@@H](C)C(=O)N[C@@H](Cc1c[nH]c2ccccc12)C(=O)N[C@@H](CC(C)C)C(=O)N[C@@H](CCC(=O)O)C(=O)N[C@@H](C)C(=O)NCC(=O)NCC(=O)O)C(C)C)C(=O)O [Cotadutide]
Average CGM Glucose Over 7-Day Periods, End of Dosing Period, Mean (300 μg (Days 19 to 25)): 124.894 mg/dL
Average CGM Glucose Over 7-Day Periods, End of Dosing Period, Median (300 μg (Days 19 to 25)): 123.277 mg/dL
Percentage of time CGM Glucose in Hyperglycemia (>180 mg/dL), End of Dosing Period, Mean (300 μg (Days 19 to 25)): 10.65%
Percentage of time CGM Glucose in Hyperglycemia (>180 mg/dL), End of Dosing Period, Median (300 μg (Days 19 to 25)): 5.81%
Average CGM Glucose Over 7-Day Periods, Difference in LS Mean Change (vs Placebo) (300 μg (Days 19 to 25)): -48.97 mg/dL
Average CGM Glucose Over 7-Day Periods, LS Mean Change (300 μg (Days 19 to 25)): -38.75 mg/dL
Percentage of time CGM Glucose in Clinically Significant Hypoglycemia (<54 mg/dL), Difference in LS Mean Change (vs Placebo) (300 μg (Days 19 to 25)): 4.57%
Percentage of time CGM Glucose in Clinically Significant Hypoglycemia (<54 mg/dL), LS Mean Change (300 μg (Days 19 to 25)): 3.58%
Percentage of time CGM Glucose in Hyperglycemia (>180 mg/dL), Difference in LS Mean Change (vs Placebo) (300 μg (Days 19 to 25)): −23.47%
Percentage of time CGM Glucose in Hyperglycemia (>180 mg/dL), LS Mean Change (300 μg (Days 19 to 25)): −23.47%
Percentage of time CGM Glucose in Hypoglycemia (<70 mg/dl), Difference in LS Mean Change (vs Placebo) (300 μg (Days 19 to 25)): 4.25%
Percentage of time CGM Glucose in Hypoglycemia (<70 mg/dl), LS Mean Change (300 μg (Days 19 to 25)): 3.39%
Average CGM Glucose Over 7-Day Periods, Change from Baseline to End of Dosing Period, Mean (300 μg (Days 19 to 25)): -38.623 mg/dL
Average CGM Glucose Over 7-Day Periods, Change from Baseline to End of Dosing Period, Median (300 μg (Days 19 to 25)): -35.498 mg/dL
Percentage of time CGM Glucose in Hyperglycemia (>180 mg/dL), Change from Baseline to End of Dosing Period, Mean (300 μg (Days 19 to 25)): −23.50%
Percentage of time CGM Glucose in Hyperglycemia (>180 mg/dL), Change from Baseline to End of Dosing Period, Median (300 μg (Days 19 to 25)): −19.64%
Average CGM Glucose Over 7-Day Periods, End of Dosing Period, Mean (300 μg (Days 26 to 32)): 125.382 mg/dL
Average CGM Glucose Over 7-Day Periods, End of Dosing Period, Median (300 μg (Days 26 to 32)): 121.594 mg/dL
Percentage of time CGM Glucose in Hyperglycemia (>180 mg/dL), End of Dosing Period, Mean (300 μg (Days 26 to 32)): 10.00%
Percentage of time CGM Glucose in Hyperglycemia (>180 mg/dL), End of Dosing Period, Median (300 μg (Days 26 to 32)): 4.38%
Average CGM Glucose Over 7-Day Periods, Difference in LS Mean Change (vs Placebo) (300 μg (Days 26 to 32)): -47.89 mg/dL
Average CGM Glucose Over 7-Day Periods, LS Mean Change (300 μg (Days 26 to 32)): -41.37 mg/dL
Percentage of time CGM Glucose in Clinically Significant Hypoglycemia (<54 mg/dL), Difference in LS Mean Change (vs Placebo) (300 μg (Days 26 to 32)): 1.58%
Percentage of time CGM Glucose in Clinically Significant Hypoglycemia (<54 mg/dL), LS Mean Change (300 μg (Days 26 to 32)): 0.13%
Percentage of time CGM Glucose in Hyperglycemia (>180 mg/dL), Difference in LS Mean Change (vs Placebo) (300 μg (Days 26 to 32)): −18.94%
Percentage of time CGM Glucose in Hyperglycemia (>180 mg/dL), LS Mean Change (300 μg (Days 26 to 32)): −25.15%
Percentage of time CGM Glucose in Hypoglycemia (<70 mg/dl), Difference in LS Mean Change (vs Placebo) (300 μg (Days 26 to 32)): 4.91%
Percentage of time CGM Glucose in Hypoglycemia (<70 mg/dl), LS Mean Change (300 μg (Days 26 to 32)): 3.09%
Average CGM Glucose Over 7-Day Periods, Change from Baseline to End of Dosing Period, Mean (300 μg (Days 26 to 32)): -41.401 mg/dL
Average CGM Glucose Over 7-Day Periods, Change from Baseline to End of Dosing Period, Median (300 μg (Days 26 to 32)): -51.123 mg/dL
Percentage of time CGM Glucose in Hyperglycemia (>180 mg/dL), Change from Baseline to End of Dosing Period, Mean (300 μg (Days 26 to 32)): −25.49%
Percentage of time CGM Glucose in Hyperglycemia (>180 mg/dL), Change from Baseline to End of Dosing Period, Median (300 μg (Days 26 to 32)): −23.12%
Time in target range, LS Mean Change (Insulin Dose < 20 U/day): 17.13%
Time in target range, LS Mean Change (Insulin Dose ≥ 20 U/day): 10.40%
Time in target range, LS Mean Change (Total): 14.79%
